One molecule from patent publication US7741496B2, “Ascorbic acid derivatives” (Corum Inc., priority 2008, dated 2010) can be followed below.

The data set is described as follows: Thermal Stability Test. The format is physicochemical. The settings on record: 45° C. oven for 21 days; compared with ascorbic acid (FIG. 4). How it is done:
FIG. 4 is a diagram of Thermal Stability Test observed at 45° C. oven for 21 days.
Competitive with 3-O-ethyl-ascorbic acid and Azelaic acid, inventive samples have best effect in tyrsoinase inhibition.

Take `CCOC1=C(O)C(=O)O[C@@H]1[C@@H](O)COC(=O)CCCCCCCC(=O)O` [Formula (IV), 3-O-ethyl-ascorbyl-6-nonanedioate]: the thermal stability result is “stable than ascorbic acid”.
